≈ marks a conversion by molar mass, not a printed value. Bridge positions count the residues as written; N and C are the ends. Square brackets hold non-standard residues; d marks the D form. Peptide text beside a SMILES is read from it.
How the values were obtained:
[1] = tested on: S. epidermidis ATCC 12228; format: cell-based, Staphylococcus epidermidis
Outline: (§1)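 MICs were determined by broth microdilution, with bacteria at a final 1 × 10^6 CFU/mL and peptides tested from 100 to 0.78 μM.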

A. baumannii ATCC 19606 = format: cell-based, Acinetobacter baumannii
Outline: as §1

[2] = CD spectroscopy, secondary structure content (DichroWeb); format: physicochemical; details: for helix-1 (regular α-helix) / helix-2 (distorted α-helix) / random / β-strand-1 (regular β-strand) / β-strand-2 (distorted β-strand) / β-turn: peptide 50 μM, 25 °C
Method: The secondary structures of the linear peptide 9 and its stapled analogues 12, 17, and 24–26 were explored by circular dichroism (CD). CD spectroscopy studies were performed in water, and SDS or DPC micelles (20 mM) were used as mimics of the bacterial or mammalian membranes, respectively.[60]
The secondary structure content was predicted based on the CD spectra from 190 to 260 nm using the online server for protein secondary structure analyses, DichroWeb.[61] […] The hydrocarbon-bridged peptide 25 was slightly helical and structured in water, with weak ellipticity at 220 nm. Peptide 25 contains ∼13% regular helix and ∼10% distorted helix, according to the DichroWeb prediction.
All spectra were measured in the 260–190 nm spectral range, 1 nm bandwidth, 4 accumulations, and 100 nm/min scanning speed.[60] Each peptide was dissolved in water to prepare a 1 mM peptide stock solution. The CD spectra were performed in water, in SDS (20 mM) and in DPC (20 mM) using a peptide concentration of 50 μM. The secondary structure content of the peptides was predicted using the online server for protein secondary structure analyses DichroWeb.[61] Input and output units and the wavelength step were θ (mdeg) and 1.0 nm, respectively. The algorithm used was CONTIN-LL,[83] and reference database was set-7. When we have NRMSD > 0.100, we used the CDSSTR method.[83]

[3] = Peptide aggregation in LPS (ThT fluorescence); format: physicochemical; details: peptide 20 μM, LPS 1 mg/mL, ThT 25 μM, 1 h incubation, ThT emission 482 nm
Method: The peptides were incubated with LPS (1 mg/mL) at a concentration of 20 μM, and ThT (25 μM) was used as a fluorophore to measure aggregation.
Figure 5 Aggregate formation in the interaction between peptides 9 (a), 12 (b), and 17 (c) (20 μM) and LPS (1 mg/mL) monitored by ThT fluorescence (25 μM). Peptide alone and ThT alone were used as controls.
After 1 h, we evaluated the peptide aggregation measuring ThT fluorescence emission at 482 nm (slit width, 5 nm) after excitation at 450 nm (slit width, 10 nm). ThT spectra at 25 μM, and peptide alone at 20 μM were carried out as control.

[4] = Membrane fluidity, Laurdan GP value; details: lipid 100 μM, Laurdan 1 μM, PBS pH 7.4, 25 °C, 10 min; for GPlaurdan DOPG/DOPE/CL + cmpd: LUVs alone –0.14; for GPlaurdan DOPG/CL + cmpd: LUVs alone –0.32
Method: A membrane fluidity study was performed using Laurdan, a probe with the capacity to insert into membranes and to distribute between liquid phases,[66] changing its emission spectrum.[67] In particular, the maximum emission wavelength of Laurdan is 490 nm when phospholipids are in a disordered phase and it shifts to 440 nm when lipids are in a more packed phase. The generalized polarization (GP) parameter was used to measure quantitatively the emission shift of the Laurdan probe.[68] […] LUVs fluidity was evaluated before and after the addition of 12 and 9 at 25 °C. Before the addition of both peptides, emission of LUVs, mimicking both Gram-positive and Gram-negative membranes, indicated the presence of a disordered phase with a maximum at 490 nm (Table 3). […] In fact, GP parameter indicated the presence of a disordered phase for both Gram-positive and Gram-negative liposomes (Table 3).
Laurdan is extensively used as a fluorescent probe in membrane fluidity study.[79] Laurdan emission spectra encapsulated in large unilamellar vesicles (LUVs) are centered at 490 nm when the lipids are in a disordered phase and the emission shifts to 440 nm when the lipids are in a more packed phase. The preparation of LUVs was performed using the extrusion method.[79] To mimic the lipid composition of Gram-positive and Gram-negative membranes, we used LUVs made of DOPG/CL (58/42 ratio in moles) and DOPG/DOPE/CL (63/23/12 ratio in moles), respectively. First, stock solutions of lipids in chloroform were prepared and the assay was performed using a final lipid concentration of 100 μM. Laurdan (1 μM) was added to chloroform/lipids solution before the evaporation of organic solvent. The mixture of lipids and probe was dried under nitrogen gas stream and freeze-dried overnight. Then, lipid film with Laurdan was hydrated with PBS 1× buffer, pH = 7.4, vortexed for 1 h, and freeze-thawed six times and extruded 10 times through polycarbonate membranes with 0.1 μm diameter pores, obtaining LUVs with encapsulated Laurdan. Stock solutions of 2 mM of linear peptide 9 and lactam-bridged analogue 12 were prepared by dissolving peptides in water. The influence of peptides on membrane fluidity was evaluated at 5 and 30 μM. The peptide was added to LUVs + Laurdan probe, and after 10 min, the fluorescence spectra were recorded using a 1 cm path length quartz cell, thermostated at 25 °C. To measure the Laurdan emission shift and to quantify the variation of membrane fluidity, we calculated the generalized polarization (GP) as GP = (I440 – I490)/(I440 + I490).

[5] = CD in DPC micelles (20 mM), DichroWeb
[6] = CD in SDS micelles (20 mM), DichroWeb
[7] = CD in water, DichroWeb (CONTIN-LL, set-7; CDSSTR if NRMSD > 0.100)

SMILES	MIC S. epidermidis ATCC 12228 [1] [µM]	MIC A. baumannii ATCC 19606 (A. baumannii ATCC 19606) [µM]	helix-1 (regular α-helix) [2, 5] [%]	helix-2 (distorted α-helix) [2, 5] [%]	random [2, 5] [%]	β-strand-1 (regular β-strand) [2, 5] [%]	β-strand-2 (distorted β-strand) [2, 5] [%]	β-turn [2, 5] [%]	helix-1 (regular α-helix) [2, 6] [%]	helix-2 (distorted α-helix) [2, 6] [%]	random [2, 6] [%]	β-strand-1 (regular β-strand) [2, 6] [%]	β-strand-2 (distorted β-strand) [2, 6] [%]	β-turn [2, 6] [%]	helix-2 (distorted α-helix) ([2]; CD in water, DichroWeb) [%]	random ([2]; CD in water, DichroWeb) [%]	β-strand-1 (regular β-strand) ([2]; CD in water, DichroWeb) [%]	β-strand-2 (distorted β-strand) ([2]; CD in water, DichroWeb) [%]	β-turn ([2]; CD in water, DichroWeb) [%]	helix-1 (regular α-helix) [2, 7] [%]	other results
CC[C@H](C)[C@H](NC(=O)[C@H](CCCNC(=N)N)NC(=O)[C@@H]1CCCCn2cc(nn2)C[C@H](NC(=O)[C@H](Cc2ccccc2)NC(=O)[C@H](Cc2c[nH]c3ccccc23)NC(=O)[C@@H]2CCCN2C(=O)[C@@H](NC(=O)[C@@H](N)Cc2ccccc2)C(C)C)C(=O)N[C@@H](CCCCN)C(=O)N[C@@H](Cc2ccccc2)C(=O)NC(CC(C)C)C(=O)N1)C(=O)N[C@@H](CC(C)C)C(N)=O (stereo in doubt) [compound 17]	1.56 (≈ 2.67 µg/mL)	25 (≈ 42.9 µg/mL)	38	18	19	9	7	10	32	16	16	13	7	15	4	49	19	9	16	2	aggregation in the presence of LPS [3]: higher ability to aggregate
CC[C@H](C)[C@H](NC(=O)[C@H](CCCNC(=N)N)NC(=O)[C@@H]1CCC(=O)NCCCC[C@H](NC(=O)[C@H](Cc2ccccc2)NC(=O)[C@H](Cc2c[nH]c3ccccc23)NC(=O)[C@@H]2CCCN2C(=O)[C@@H](NC(=O)[C@@H](N)Cc2ccccc2)C(C)C)C(=O)N[C@@H](CCCCN)C(=O)N[C@@H](Cc2ccccc2)C(=O)N[C@H](CC(C)C)C(=O)N1)C(=O)N[C@@H](CC(C)C)C(N)=O [compound 12] (H-FVPWFKKF[dL]ERIL-NH2; lactam 6-10)	3.12 (≈ 5.32 µg/mL)	3.12 (≈ 5.32 µg/mL)	54	21	13	1	4	7	58	24	5	0	3	10	2	55	18	8	15	0	helix percentage (total) in SDS solution ([2]; CD in SDS micelles (20 mM), DichroWeb, regular plus distorted helix): about 80%; aggregation in the presence of LPS [3]: lowest aggregation; GPlaurdan DOPG/DOPE/CL + cmpd ([4]; peptide 5 μM): –0.07; GPlaurdan DOPG/CL + cmpd ([4]; peptide 5 μM): –0.23; GPlaurdan DOPG/DOPE/CL + cmpd ([4]; peptide 30 μM): 0.1; GPlaurdan DOPG/CL + cmpd ([4]; peptide 30 μM): 0.04

Source: publication PMC8389922, “First-in-Class Cyclic Temporin L Analogue: Design, Synthesis, and Antimicrobial Assessment” (Journal of Medicinal Chemistry, 2021)
